# Measurements from article PMC8234462, “Novel Cyclophilin Inhibitor Decreases Cell Proliferation and Tumor Growth in Models of Hepatocellular Carcinoma” (Cancers, 2021).
# Read-outs that look alike come from different tables or passages of the source.
# Assays:
# [1] = Body weight during xenograft treatment; format: in vivo, NMRI nude mice; conditions: 10 mg/kg daily subcutaneous; 3 weeks
# Description: HEPG2 cells were transduced with RediFect Red-FLuc-GFP (Perkin Elmer, Cat# CLS960003, Waltham, MA, USA) with a MOI = 3 and sorted for GFP^+ in a FACSAria III (BD Biosciences, Franklin Lakes, NJ, USA). GFP^+Luciferase (Luc)^+ HEPG2 cells were confirmed to be negative for mycoplasma with the MycoAlert^TM Mycoplasma Detection Kit (Lonza, Cat# LT07-418, Basel, Switzerland). Cell viability and a percentage of the GFP^+ cells were analyzed before the start of the in vivo experiment with a BD FACSverse cytometer (BD Biosciences, Franklin Lakes, NJ, USA). Twenty NMRI nude female mice (6–8 weeks old) were injected in one flank with 1 million cells suspended in PBS with 50% Matrigel (Corning, Cat# 354230, Corning, NY, USA) in a total volume of 200 µL. […]
# Tumor growth was assessed with an in vivo imaging system (IVIS) one week after the injection of the cells. […] Body weights were measured at time 0 of the treatment and twice a week after the beginning of the treatment. […] Tumor growth was analyzed for up to 3 weeks. BLI signal intensity was quantified in total flux (photons/s) after deducting the average background signal from the measurement region of interest (ROI) around the tumor area using live image analysis software (PerkinElmer, Waltham, MA, USA).
# [2] = system: HEPG2; experiment: Cell proliferation and viability with Acridine Orange and DAPI; format: cell-based, human
# Description: (§1) For the quantification of the total cell number, cells were seeded at a concentration of 6000 cells/well for HEPG2 and 9000 cells/well for HUH7 in a 24-well plate. After 24 h of seeding, cells were treated with 10, 50 or 100 nM of NV651 or DMSO as the control dissolved in their correspondent media, fresh media with compound was added every 72 h. After 72 h of treatment, cells were harvested and stained with DAPI (Santa Cruz Biotechnology, Cat# SC3598, Dallas, TX, USA) and Acridine Orange (AO) (Sigma-Aldrich, Cat# A9231-10ML, St. Louis, MO, USA) at final concentrations of 5 µg/mL and 1.5 µg/mL, respectively. Quantification of the total cell number and nonviable cells was performed every day up to the tenth day. Total cell number was quantified with acridine orange staining, and the cell viability in each sample was quantified by the ratio between cells positive for DAPI staining (nonpermeable dye) and acridine orange staining.
# [3] = system: HUH7; experiment: as above; format: cell-based, human
# Description: as §1
# [4] = Pharmacokinetics IV and PO; format: in vivo; conditions: male, CD1, mouse, blood, mice; for Tmax: read-out: time of peak concentration in blood (converted)
# Description: These experiments were performed by Shanghai ChemPartner Co., Ltd. (Shanghai, China) following the guidance described above.
# Thirty microliters of blood or liver samples were mixed with 100-µL Pierce Acetonitrile (ACN, Thermo Fisher Scientific, Waltham, MA, USA) containing 20-ng/mL IS (702) used as the internal standard. An aliquot of 10-µL supernatant was injected for LC-MS/MS analysis using LCMSMS-003 (API4000).
# NV651 was prepared as described above. Six- to eight-week-old male mice were treated IV with 0.5 mg/kg or PO with 5 mg/kg, with 3 mice per group. Blood and plasma samples were taken pre-dose; at 5 min of treatment and at 1, 2, 4, 8 or 24 h. Analysis was performed as indicated above.
# [5] = system: HUH7; experiment: Mitotic quantification by immunofluorescence; format: cell-based, human; conditions: 10 or 100 nM, 48 h
# Description: HUH7 cells were seeded at a concentration of 4.5 × 10^4 cells/well in a 6-well plate containing coverslips, followed by the treatment of NV651 at 10 or 100 nM or the equivalent volume in DMSO. After 48 h, samples were fixed with 4% PFA (Histolab, Cat# 02176, Gothenburg, Sweden) and permeabilized with 0.1% Triton x-100 (Sigma-Aldrich, Cat# X100-500ML, St. Louis, MO, USA) diluted in PBS. Samples were stained with 1-µg/mL of rat anti-tubulin (Abcam, Cat# ab6161, Cambridge, UK) for one hour at room temperature. Lastly, DAPI and secondary antibody goat anti-rat IgG AF546 conjugate (Invitrogen, Cat# A11081, Waltham, MA, USA) were added. Coverslips were mounted on glass slides adding fluorescent mounting media (Dako, Agilent, Santa Clara, CA, USA). Thirteen pictures at 10× were taken with a Zeiss Confocal microscope and quantified for the number of mitotic cells in relation to the total number of cells with ImageJ.
# [6] = system: Luc+ HEPG2 xenograft; experiment: In vivo efficacy, xenograft tumor growth; set-up: species or system NMRI nude mice; conditions: 10 mg/kg daily subcutaneous
# Description: Twenty-five percent buffered Hydroxy Propyl beta Cyclodextrin (HPbCD) was prepared from Hydroxy Propyl beta Cyclodextrin (Roquette, Lestrem, France), EDTA solution and phosphate buffer at a pH of 7.4, filtered with a […] (VWR, Cat# 28145-483, Radnor, PA, USA) and stored at 4 °C. NV651 was prepared at a concentration of 10 mg/kg with 25% buffered HPbCD (vehicle). NV651 solution was sonicated for 30 min in a water bath sonicator (Bioruptor, Diagenode, Denville, NJ, USA) and shaken for up to an hour, followed by a secondary sterilization with a 0.2-µm filter. NV651 solution was stored at 4 °C up to 2 weeks, with stability confirmed up to 3 weeks.
# HEPG2 cells were transduced with RediFect Red-FLuc-GFP (Perkin Elmer, Cat# CLS960003, Waltham, MA, USA) with a MOI = 3 and sorted for GFP^+ in a FACSAria III (BD Biosciences, Franklin Lakes, NJ, USA). […] Cell viability and a percentage of the GFP^+ cells were analyzed before the start of the in vivo experiment with a BD FACSverse cytometer (BD Biosciences, Franklin Lakes, NJ, USA). […]
# Tumor growth was assessed with an in vivo imaging system (IVIS) one week after the injection of the cells. […] Body weights were measured at time 0 of the treatment and twice a week after the beginning of the treatment. […] Tumor growth was analyzed for up to 3 weeks. […]
# [7] = system: PLC/PRF/5; experiment: Clonogenic assay; format: cell-based, human; conditions: continuously treated 14 days, crystal violet
# Description: (§2) Cells were seeded at 2500/mL and, starting 24 h later, provided with fresh medium and NV651 every day for the following 14 days. Then, colonies were stained with crystal violet, which was subsequently dissolved in 10% acetic acid and quantified by a spectrophotometer by absorbance at 595 nm.
# [8] = system: HEPG2; experiment: Clonogenic assay; format: cell-based, human; conditions: continuously treated 14 days, crystal violet
# Description: as §2
# [9] = system: Huh-7D12; experiment: Clonogenic assay; format: cell-based, human; conditions: continuously treated 14 days, crystal violet
# Description: as §2
# [10] = system: Hep3B; experiment: Clonogenic assay; format: cell-based, human; conditions: continuously treated 14 days, crystal violet
# Description: as §2
structure (smiles),measurement,setting,value
CC(=O)CCC1C(=O)NC(C(C)C)C(=O)NC(Cc2cc(O)cc(F)c2)C(=O)N2CCCC(N2)C(=O)OC(C(C)=CC=CC(=O)OC(C)(C)C)CC=CC=CC(O)C(C)C1O (stereo not drawn) [NV651],body weight,[1],no significant changes
same,"doubling time, elevated to","[2]; different concentrations of NV651 up to 10 days, from 43 h",827 h
same,cell viability (DAPI+ / AO+ cells),[2]; up to 10 days of exposure,could not observe any differences
same,cell viability (DAPI+ / AO+ cells),[3]; after 10 days of exposure,significant decrease
same,"doubling time, elevated to","[3]; different concentrations of NV651 up to 10 days, from 35 h",155 h
same,bioavailability,[4]; 0.5 mg/kg IV vs 5 mg/kg PO,2%
same,Tmax,[4]; 0.5 mg/kg IV,~5 min
same,Tmax,[4]; 5 mg/kg PO,~60 min
same,number of mitotic counts,[5],increase in the number of mitotic counts
same,"luminescence signal (tumor growth, IVIS) vs vehicle",[6]; after 3 weeks of treatment,significantly reduced
same,tumor growth by caliper measurements vs vehicle,[6]; up to 3 weeks,reduced tumor growth
same,number of colonies,[7],reduced the number of colonies
same,number of colonies,[8],reduced the number of colonies
same,number of colonies,[9],reduced the number of colonies
same,number of colonies,[10],reduced the number of colonies
